Among the data in patent US7612211B2, “Benzimidazole TRPV1 inhibitors” (Janssen Pharmaceutica N.V., priority 2006, dated 2009) are IC50 and inhibition values, retold here.

In this test the target is T1, hTRPV1 (Homo sapiens, UniProt Q8NER1).
T1 construct: expressed in transfected cells; host or cells: HEK293
Briefly: Human TRPV1 (hTRPV1) functional assay, FLIPR intracellular Ca2+, capsaicin challenge. Format: cell-based. Particulars: HEK293 cells expressing hTRPV1, capsaicin 0.030 μM challenge; for pIC50: derived from a variety of test concentrations, read-out: IC50 value (symbol c); for inhibition at 0.2 µM: test concentration of 0.2 μm, read-out: percent inhibition (symbol b). As for the experimental part: The functional activity of the test compounds was determined by measuring changes in intracellular calcium concentration using a Ca^++-sensitive fluorescent dye and FLIPR™ technology. Increases in Ca^++ concentration were readily detected upon challenge with capsaicin.
HEK293 cells expressing hTRPV1 were grown on poly-D-lysine coated 384 well black-walled plates (BD 354663) and 1 day later loaded with Calcium 3 Dye for 35 min at 37° C., 5% CO2 and then for 25 min at room temperature, and subsequently tested for agonist-induced increases in intracellular Ca^2+ levels using FLIPR™ technology. Cells were challenged with test compounds (at varying concentrations) and intracellular Ca^2+ was measured for 5 min prior to the addition of capsaicin to all wells to achieve a final concentration of 0.030 μM eliciting ˜80% maximal response.
EC50 or IC50 values were determined from concentration-response studies, which were generated using the average of quadruplicate wells for each data point. The symbol “a” represents percent inhibition obtained at a test concentration of 0.5 μm; the symbol “b” represents percent inhibition obtained at a test concentration of 0.2 μm; the symbol “c” represents an IC50 value (nM) derived from a variety of test concentrations. The term “NA” means that the result is not applicable for a particular compound.

pIC50: −log10 of the molar value.

T1 sequence (Q8NER1 whole entry): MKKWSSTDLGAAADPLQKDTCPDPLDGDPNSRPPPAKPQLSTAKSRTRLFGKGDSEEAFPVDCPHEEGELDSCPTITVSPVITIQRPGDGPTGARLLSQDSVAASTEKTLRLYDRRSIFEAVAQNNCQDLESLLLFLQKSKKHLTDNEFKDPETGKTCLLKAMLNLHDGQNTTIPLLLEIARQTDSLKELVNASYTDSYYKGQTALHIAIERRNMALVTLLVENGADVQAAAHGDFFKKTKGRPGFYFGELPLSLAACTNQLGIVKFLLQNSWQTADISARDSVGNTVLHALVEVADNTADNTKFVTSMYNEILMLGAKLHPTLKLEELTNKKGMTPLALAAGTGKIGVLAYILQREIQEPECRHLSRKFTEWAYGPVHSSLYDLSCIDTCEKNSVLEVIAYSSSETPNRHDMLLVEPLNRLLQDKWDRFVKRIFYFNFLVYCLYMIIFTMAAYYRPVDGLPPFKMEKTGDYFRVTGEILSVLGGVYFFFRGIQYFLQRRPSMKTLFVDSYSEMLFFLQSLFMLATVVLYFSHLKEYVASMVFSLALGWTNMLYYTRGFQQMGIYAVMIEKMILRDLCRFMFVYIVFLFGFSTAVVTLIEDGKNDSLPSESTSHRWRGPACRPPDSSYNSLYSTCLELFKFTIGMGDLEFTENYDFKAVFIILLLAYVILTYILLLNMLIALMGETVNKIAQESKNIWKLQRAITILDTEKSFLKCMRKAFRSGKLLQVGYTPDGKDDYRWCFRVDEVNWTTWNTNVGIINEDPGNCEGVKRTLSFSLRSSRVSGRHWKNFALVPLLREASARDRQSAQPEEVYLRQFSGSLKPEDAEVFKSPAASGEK

For orientation: pIC50 means −log10 of the IC50, conventionally taken in molar units. The inhibition is the share of the control response that was lost under treatment. `CNS(=O)(=O)c1ccccc1-c1ccc2[nH]c(COc3cccc(C(F)(F)F)c3)nc2c1` [Cpd 52, N-methyl-2-[2-(3-trifluoromethyl-phenoxymethyl)-1H-benzoimidazol-5-yl]-benzenesulfonamide]: the pIC50 is 7.46 and the inhibition at 0.2 µM worked out at 99%.
As to `CS(=O)(=O)c1ccccc1-c1ccc2[nH]c(COc3ccccc3)nc2c1` [Cpd 53, 5-(2-methanesulfonyl-phenyl)-2-phenoxymethyl-1H-benzoimidazole], the inhibition at 0.2 µM was determined as 17%.
On to `CS(=O)(=O)c1ccccc1-c1ccc2[nH]c(COc3ccccc3F)nc2c1` [Cpd 54, 2-(2-fluoro-phenoxymethyl)-5-(2-methanesulfonyl-phenyl)-1H-benzoimidazole], for which the inhibition at 0.2 µM amounted to 4%.
The same measure, in the same setting: next, `CS(=O)(=O)c1ccccc1-c1ccc2[nH]c(COc3cccc(F)c3)nc2c1` [Cpd 55, 2-(3-fluoro-phenoxymethyl)-5-(2-methanesulfonyl-phenyl)-1H-benzoimidazole]: 20%; `CS(=O)(=O)c1ccccc1-c1ccc2[nH]c(COc3ccc(F)cc3)nc2c1` [Cpd 56, 2-(4-fluoro-phenoxymethyl)-5-(2-methanesulfonyl-phenyl)-1H-benzoimidazole]: 31%; `CS(=O)(=O)c1ccccc1-c1ccc2[nH]c(COc3ccccc3Cl)nc2c1` [Cpd 57, 2-(2-chloro-phenoxymethyl)-5-(2-methanesulfonyl-phenyl)-1H-benzoimidazole]: 14%.
For `CS(=O)(=O)c1ccccc1-c1ccc2[nH]c(COc3cccc(Cl)c3)nc2c1` [Cpd 58, 2-(3-chloro-phenoxymethyl)-5-(2-methanesulfonyl-phenyl)-1H-benzoimidazole], the inhibition at 0.2 µM amounted to 22%.
In the case of `CS(=O)(=O)c1ccccc1-c1ccc2[nH]c(COc3ccc(Cl)cc3)nc2c1` [Cpd 59, 2-(4-chloro-phenoxymethyl)-5-(2-methanesulfonyl-phenyl)-1H-benzoimidazole], the pIC50 is 7.74 and the inhibition at 0.2 µM stood at 87%.
`CS(=O)(=O)c1ccccc1-c1ccc2[nH]c(COc3cccc(Br)c3)nc2c1` [Cpd 60, 2-(3-bromo-phenoxymethyl)-5-(2-methanesulfonyl-phenyl)-1H-benzoimidazole]: the inhibition at 0.2 µM amounted to 49%.
Take `CS(=O)(=O)c1ccccc1-c1ccc2[nH]c(COc3ccc(Br)cc3)nc2c1` [Cpd 61, 2-(4-bromo-phenoxymethyl)-5-(2-methanesulfonyl-phenyl)-1H-benzoimidazole]: the pIC50 was 7.18 and the inhibition at 0.2 µM was 77%.
Regarding `CS(=O)(=O)c1ccccc1-c1ccc2[nH]c(COc3ccc(F)cc3F)nc2c1` [Cpd 62, 2-(2,4-difluoro-phenoxymethyl)-5-(2-methanesulfonyl-phenyl)-1H-benzoimidazole], the inhibition at 0.2 µM was 24%.
Regarding `CS(=O)(=O)c1ccccc1-c1ccc2[nH]c(COc3ccc(F)c(F)c3)nc2c1` [Cpd 63, 2-(3,4-difluoro-phenoxymethyl)-5-(2-methanesulfonyl-phenyl)-1H-benzoimidazole], the inhibition at 0.2 µM stood at 37%.
On the same count and under the same terms, next, `CS(=O)(=O)c1ccccc1-c1ccc2[nH]c(COc3ccc(Cl)cc3Cl)nc2c1` [Cpd 64, 2-(2,4-dichloro-phenoxymethyl)-5-(2-methanesulfonyl-phenyl)-1H-benzoimidazole]: 58%.
`CS(=O)(=O)c1ccccc1-c1ccc2[nH]c(COc3ccc(Cl)c(Cl)c3)nc2c1` [Cpd 65, 2-(3,4-dichloro-phenoxymethyl)-5-(2-methanesulfonyl-phenyl)-1H-benzoimidazole]: the pIC50 was 7.24 and the inhibition at 0.2 µM is 91%.
Regarding `CS(=O)(=O)c1ccccc1-c1ccc2[nH]c(COc3ccc(Cl)cc3F)nc2c1` [Cpd 66, 2-(4-chloro-2-fluoro-phenoxymethyl)-5-(2-methanesulfonyl-phenyl)-1H-benzoimidazole], the negative-log IC50 (pIC50) was 7.09 and the inhibition at 0.2 µM came out at 85%.
On to `CS(=O)(=O)c1ccccc1-c1ccc2[nH]c(COc3ccc(F)c(Cl)c3)nc2c1` [Cpd 67, 2-(3-chloro-4-fluoro-phenoxymethyl)-5-(2-methanesulfonyl-phenyl)-1H-benzoimidazole], for which the inhibition at 0.2 µM was 70%.
Same read-out and setting: in the case of `CS(=O)(=O)c1ccccc1-c1ccc2[nH]c(COc3cc(F)c(F)c(F)c3)nc2c1` [Cpd 68, 5-(2-methanesulfonyl-phenyl)-2-(3,4,5-trifluoro-phenoxymethyl)-1H-benzoimidazole] it was 59%; in that of `CS(=O)(=O)c1ccccc1-c1ccc2[nH]c(COc3cc(F)c(F)cc3F)nc2c1` [Cpd 69, 5-(2-methanesulfonyl-phenyl)-2-(2,4,5-trifluoro-phenoxymethyl)-1H-benzoimidazole], 21%; in that of `CS(=O)(=O)c1ccccc1-c1ccc2[nH]c(COc3ccc(F)c(F)c3F)nc2c1` [Cpd 70, 5-(2-methanesulfonyl-phenyl)-2-(2,3,4-trifluoro-phenoxymethyl)-1H-benzoimidazole], 33%.
Still for that read-out and setting: next, `CS(=O)(=O)c1ccccc1-c1ccc2[nH]c(COc3cccc(C(F)(F)F)c3F)nc2c1` [Cpd 71, 2-(2-fluoro-3-trifluoromethyl-phenoxymethyl)-5-(2-methanesulfonyl-phenyl)-1H-benzoimidazole]: 43%.
With `CS(=O)(=O)c1ccccc1-c1ccc2[nH]c(COc3ccc(F)c(C(F)(F)F)c3)nc2c1` [Cpd 72, 2-(4-fluoro-3-trifluoromethyl-phenoxymethyl)-5-(2-methanesulfonyl-phenyl)-1H-benzoimidazole], the pIC50 was 7.52 and the inhibition at 0.2 µM came to 96%.
In the case of `CS(=O)(=O)c1ccccc1-c1ccc2[nH]c(COc3cc(C(F)(F)F)cc(C(F)(F)F)c3)nc2c1` [Cpd 73, 2-(3,5-bis-trifluoromethyl-phenoxymethyl)-5-(2-methanesulfonyl-phenyl)-1H-benzoimidazole], the inhibition at 0.2 µM worked out at 33%.
The same measure, in the same setting: in the case of `CS(=O)(=O)c1ccccc1-c1ccc2[nH]c(COc3ccccc3C(F)(F)F)nc2c1` [Cpd 74, 5-(2-methanesulfonyl-phenyl)-2-(2-trifluoromethyl-phenoxymethyl)-1H-benzoimidazole] it was 60%.
In the case of `CS(=O)(=O)c1ccccc1-c1ccc2[nH]c(COc3cccc(C(F)(F)F)c3)nc2c1` [Cpd 75, 5-(2-methanesulfonyl-phenyl)-2-(3-trifluoromethyl-phenoxymethyl)-1H-benzoimidazole], the pIC50 is 7.17 and the inhibition at 0.2 µM worked out at 93%.
Taken in the same sequence, the figures for `Cc1ccc(OCc2nc3cc(-c4ccccc4S(C)(=O)=O)ccc3[nH]2)cc1` [Cpd 76, 5-(2-methanesulfonyl-phenyl)-2-p-tolyloxymethyl-1H-benzoimidazole] were 7.51 and 96%.
Take `CC(C)c1ccc(OCc2nc3cc(-c4ccccc4S(C)(=O)=O)ccc3[nH]2)cc1` [Cpd 77, 2-(4-isopropyl-phenoxymethyl)-5-(2-methanesulfonyl-phenyl)-1H-benzoimidazole]: the pIC50 is 8.52 and the inhibition at 0.2 µM stood at 100%.
Taken in the same sequence, the figures for `CC(C)(C)c1ccc(OCc2nc3cc(-c4ccccc4S(C)(=O)=O)ccc3[nH]2)cc1` [Cpd 78, 2-(4-tert-butyl-phenoxymethyl)-5-(2-methanesulfonyl-phenyl)-1H-benzoimidazole] were 8.52 and 98%.
